# Measurements from patent publication US11724992B2 (Novartis AG, priority 2017, dated 2023).
# Like-named read-outs stand apart in the source and are kept apart here.
# Test system: IL-1β production in PMA-differentiated THP-1 cells
# Assay: IL-1β production in PMA-differentiated THP-1 cells stimulated with gramicidin (hTHP-1 assay, 2% fetal bovine serum; Procedures 1-3)
# Assay type: cell-based, human
# Details: class symbols, read-out: hTHP-1 IC50 (Average IC50 of compounds in hTHP-1 assay)
# Summary of the method: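 Readout is HTRF of IL-1β in cell-free supernatant after 2 h gramicidin (5 μM) challenge. Cells: THP-1 differentiated with PMA 20 ng/ml for 16-18 h, plated 50,000/well in 2% FBS RPMI, exposed to compound 1 h beforehand at final 100–0.0017 μM, DMSO 0.37%.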
# [1] = hTHP-1 assay containing 2% fetal bovine serum
# [2] = Homo sapiens, THP-1, hTHP-1 assay containing 2% fetal bovine serum
IC50 [1],IC50 [2],Compound
1000 to 5000 nM,–,"CN1CCCC1c1ccc(S(=N)(=O)NC(=O)Nc2c3c(cc4c2CCC4)CCC3)cc1 (single isomer, unassigned) [Example 408, (S,R) or (S,S) or (R,S) or (R,R)-N-((1,2,3,5,6,7-hexahydro-s-indacen-4-yl)carbamoyl)-4-(1-methylpyrrolidin-2-yl)benzenesulfonimidamide]"
5000 to 30000 nM,–,"CN(C)Cc1ccc(S(N)(=O)=NC(=O)Nc2c3c(cc4c2CCC4)CCC3)nc1 (single isomer, unassigned) [Example 414, (S) or (R)-5-((dimethylamino)methyl)-N′-((1,2,3,5,6,7-hexahydro-s-indacen-4-yl)carbamoyl)pyridine-2-sulfonimidamide]"
200 to 1000 nM,–,"Cc1sc(S(N)(=O)=NC(=O)Nc2c3c(cc4c2CCC4)CCC3)cc1C(C)(C)O (single isomer, unassigned) [Example 86]"
200 to 1000 nM,–,"Cc1nc(C(C)(C)O)ccc1S(N)(=O)=NC(=O)Nc1c2c(cc3c1CCC3)CCC2 (single isomer, unassigned) [Example 345, (R) or (S)-N′-((1,2,3,5,6,7-hexahydro-s-indacen-4-yl)carbamoyl)-6-(2-hydroxypropan-2-yl)-2-methylpyridine-3-sulfonimidamide]"
200 to 1000 nM,–,"Cc1sc(S(N)(=O)=NC(=O)Nc2c3c(cc4c2CCC4)CCC3)nc1C(C)(C)O (single isomer, unassigned) [Example 360, (S) or (R)-N′-((1,2,3,5,6,7-hexahydro-s-indacen-4-yl)carbamoyl)-4-(2-hydroxypropan-2-yl)-5-methylthiazole-2-sulfonimidamide]"
1000 to 5000 nM,–,"CC(C)(O)c1coc(S(N)(=O)=NC(=O)Nc2c3c(cc4c2CCC4)CCC3)c1 (single isomer, unassigned) [Example 202]"
1000 to 5000 nM,–,"CC(C)n1ccc(S(N)(=O)=NC(=O)Nc2c3c(cc4c2CCC4)CCC3)n1 (single isomer, unassigned) [Example 94]"
40 to 200 nM,–,"CC(C)(O)c1ccc(S(N)(=O)=NC(=O)Nc2c3c(cc4c2CCC4)CCC3)cn1 (single isomer, unassigned) [Example 320, (R) or (S)-N′-((1,2,3,5,6,7-hexahydro-s-indacen-4-yl)carbamoyl)-6-(2-hydroxypropan-2-yl)pyridine-3-sulfonimidamide]"
200 to 1000 nM,–,"CN(C)Cc1ccc(S(N)(=O)=NC(=O)Nc2c3c(cc4c2CCC4)CCC3)nc1 (single isomer, unassigned) [Example 413, (R) or (S)-5-((dimethylamino)methyl)-N′-((1,2,3,5,6,7-hexahydro-s-indacen-4-yl)carbamoyl)pyridine-2-sulfonimidamide]"
–,1000 to 5000 nM,"CC(C)(O)c1ccc(S(N)(=O)=NC(=O)Nc2c3c(cc4c2CCC4)CCC3)cc1F (stereo not drawn) [Example 60, 3-fluoro-N′-((1,2,3,5,6,7-hexahydro-s-indacen-4-yl)carbamoyl)-4-(2-hydroxypropan-2-yl)benzenesulfonimidamide]"
8 to 40 nM,–,"CN(C)Cc1cc(F)c(S(N)(=O)=NC(=O)Nc2c3c(cc4c2CCC4)CCC3)s1 (single isomer, unassigned) [Example 381, (R) or (S)-5-((dimethylamino)methyl)-3-fluoro-N′-((1,2,3,5,6,7-hexahydro-s-indacen-4-yl)carbamoyl)thiophene-2-sulfonimidamide]"
5000 to 30000 nM,–,"CN1CCCC1c1ccc(S(=N)(=O)NC(=O)Nc2c3c(cc4c2CCC4)CCC3)cc1 (single isomer, unassigned) [Example 407, (R,R) or (R,S) or (S,S) or (S,R)-N-((1,2,3,5,6,7-hexahydro-s-indacen-4-yl)carbamoyl)-4-(1-methylpyrrolidin-2-yl)benzenesulfonimidamide]"
1000 to 5000 nM,–,"COC(C)(C)c1ncc(S(N)(=O)=NC(=O)Nc2c3c(cc4c2CCC4)CCC3)s1 (single isomer, unassigned) [Example 387, (S) or (R)-N′-((1,2,3,5,6,7-hexahydro-s-indacen-4-yl)carbamoyl)-2-(2-methoxypropan-2-yl)thiazole-5-sulfonimidamide]"
200 to 1000 nM,–,"CC(c1ccc(S(N)(=O)=NC(=O)Nc2c3c(cc4c2CCC4)CCC3)cc1)N(C)C (single isomer, unassigned) [Example 378, (R,S) or (R,R) or (S,R) or (S,S)-4-(1-(dimethylamino)ethyl)-N′-((1,2,3,5,6,7-hexahydro-s-indacen-4-yl)carbamoyl)benzenesulfonimidamide]"

# More lines, now with the values behind:
Compound,IC50 [1],IC50 [2]
"CC(C)c1cc(C#N)c(F)c(C(C)C)c1NC(=O)N=S(N)(=O)c1cnc(C(C)(O)CO)s1 (single isomer, unassigned) [Example 317, (R,R) or (R,S) or (S,S) or (S,R)-N-((4-cyano-3-fluoro-2,6-diisopropylphenyl)carbamoyl)-2-(1,2-dihydroxypropan-2-yl)thiazole-5-sulfonimidamide]",1000 to 5000 nM,–
"CC(C)c1ccc(F)c(C(C)C)c1NC(=O)N=S(N)(=O)c1cnc(C(C)(C)O)s1 (single isomer, unassigned) [Example 298, (R) or (S)-N′-((3-fluoro-2,6-diisopropylphenyl)carbamoyl)-2-(2-hydroxypropan-2-yl)thiazole-5-sulfonimidamide]",40 to 200 nM,–
"CC(C)(O)c1ccc(S(N)(=O)=NC(=O)Nc2c3c(c(F)c4c2CCC4)CCC3)c(F)c1 (single isomer, unassigned) [Example 152]",40 to 200 nM,–
"CC(C)(O)c1ccc(S(N)(=O)=NC(=O)Nc2c3c(c(F)c4c2CCC4)CCC3)c(Cl)c1 (single isomer, unassigned) [Example 158]",1000 to 5000 nM,–
"Cc1oc(S(N)(=O)=NC(=O)Nc2c3c(cc4c2C(C)CC4)CCC3)cc1C(C)(C)O (single isomer, unassigned) [Example 126]",1000 to 5000 nM,–
"CC(C)(O)c1csc(S(N)(=O)=NC(=O)Nc2c3c(c(F)c4c2CCC4)CCC3)c1 (single isomer, unassigned) [Example 206]",8 to 40 nM,–
"CCc1cc(OC(F)F)cc(C(C)C)c1NC(=O)N=S(N)(=O)c1cnc(C(C)(C)O)s1 (single isomer, unassigned) [Example 98]",5000 to 30000 nM,–
"CC(C)(O)c1cnc(S(N)(=O)=NC(=O)Nc2c3c(cc4c2OCC4)CCC3)s1 (single isomer, unassigned) [Example 349, (S) or (R)-5-(2-hydroxypropan-2-yl)-N′-((3,5,6,7-tetrahydro-2H-indeno[5,6-b]furan-8-yl)carbamoyl)thiazole-2-sulfonimidamide]",1000 to 5000 nM,–
"CC(C)(O)c1csc(S(N)(=O)=NC(=O)Nc2c3c(c(Cl)c4c2CCC4)CCC3)c1 (stereo not drawn) [Example 14, N′-(8-chloro-1,2,3,5,6,7-hexahydro-s-indacen-4-ylcarbamoyl)-4-(2-hydroxypropan-2-yl)thiophene-2-sulfonimidamide]",–,8 to 40 nM
"CC(C)(O)c1csc(S(N)(=O)=NC(=O)Nc2c3c(c(F)c4c2CCC4)CCC3)n1 (single isomer, unassigned) [Example 310, (R) or (S)-N′-((8-fluoro-1,2,3,5,6,7-hexahydro-s-indacen-4-yl)carbamoyl)-4-(2-hydroxypropan-2-yl)thiazole-2-sulfonimidamide]",8 to 40 nM,–
"CC(C)c1cc(C#N)c(F)c(C(C)C)c1NC(=O)NS(=N)(=O)c1sc(C(C)(C)O)nc1CO (stereo not drawn) [Example 71, N-((4-cyano-3-fluoro-2,6-diisopropylphenyl)carbamoyl)-4-(hydroxymethyl)-2-(2-hydroxypropan-2-yl)thiazole-5-sulfonimidamide]",–,1000 to 5000 nM
"CNS(=O)(=NC(=O)Nc1c2c(c(F)c3c1CCC3)CCC2)c1cc(C(C)(C)O)cs1 (single isomer, unassigned) [Example 180]",1000 to 5000 nM,–
"CC1CCc2c1cc1c(c2NC(=O)N=S(N)(=O)c2cnc(C(C)(C)O)s2)CCC1 (single isomer, unassigned) [Example 322, (S,R) or (S,S)-2-(2-hydroxypropan-2-yl)-N′-((1-methyl-1,2,3,5,6,7-hexahydro-s-indacen-4-yl)carbamoyl)thiazole-5-sulfonimidamide (from Example 291)]",200 to 1000 nM,–
"CC(C)c1cc(OC(F)F)cc(C(C)C)c1NC(=O)N=S(N)(=O)c1ncc(C(C)(C)O)s1 (single isomer, unassigned) [Example 136]",1000 to 5000 nM,–
"CC(C)c1c(F)c(C#N)cc(C2CC2)c1NC(=O)N=S(N)(=O)c1cnc(C(C)(C)O)s1 (single isomer, unassigned) [Example 108]",40 to 200 nM,–
"CC(C)(O)c1ncc([S@](N)(=O)=NC(=O)Nc2c3c(cc4c2CC4)CCC3)s1 (single isomer, unassigned) [Example 224]",–,8 to 40 nM
"Cc1nc(C(C)(C)O)sc1S(N)(=O)=NC(=O)Nc1c2c(c(F)c3c1CCC3)CCC2 (single isomer, unassigned) [Example 176]",8 to 40 nM,–
"CC(C)c1ccc(C#N)c(C(C)C)c1NC(=O)N=S(N)(=O)c1ccc(C(C)(C)O)s1 (single isomer, unassigned) [Example 300, (R) or (S)-N′-((3-cyano-2,6-diisopropylphenyl)carbamoyl)-5-(2-hydroxypropan-2-yl)thiophene-2-sulfonimidamide]",200 to 1000 nM,–
